Values after ≈ are worked out from the molar mass of the structure shown. Where a SMILES comes first, the peptide text is derived from it.

The nature of series [1]: Solubility in water.
Series [2] is described as follows: Solubility in water. Format: physicochemical. To be noted: for Löslichkeit: in water.

In the case of `N[C@@H](CSSC[C@H](N)C(=O)O)C(=O)O` [Cystin], in series [1], the solubility (in general, how much of the substance goes into solution per volume) came to 0.09 mg/mL (≈ 0.375 mM).

Regarding `NCCCC[C@H](N)C(=O)O` [Lysin], the solubility in series [1] was 666 mg/mL (≈ 4560 mM). This solubility is about 7400-fold higher than that of the molecule before. In series [2] (temperature not stated), `N[C@@H](Cc1ccc(O)cc1)C(=O)NCCCC[C@H](NC(=O)[C@@H](N)Cc1ccc(O)cc1)C(=O)O` [N^2-Tyrosinyl-N^6-tyrosinyl-lysin, N^2-Tyrosinyl-N^6-L-tyrosinyl-L-lysin] (H-Tyr-Lys(Tyr)-OH) returned a Löslichkeit of 622 g/L H20. Further, the “Faktor besser löslich in Wasser als das freie Tyrosin” value in series [2] (ratio of water solubility of the tripeptide to that of free Tyrosin) was 1,62 . 10^3. As for “N^2-Cystinyl-N^6-L-cystinyl-L-lysin [N^2,N^6-Di-L-cystinyl, L-lysin]”, the Löslichkeit in series [2] (20°C) came out at 125 g/L H20.

(Values after patent EP0087751B1, “Water-soluble peptides from very poorly soluble amino acids” (PFRIMMER KABI GMBH & CO. KG, priority 1982, dated 1985).)
